Data as given in ChEMBL document CHEMBL5390204, “Persephacin Is a Broad-Spectrum Antifungal Aureobasidin Metabolite That Overcomes Intrinsic Resistance in Aspergillus fumigatus” (J Nat Prod, 2023).

Tests used:
Curvularia lunata [1] = test: Antifungal activity against Curvularia lunata NRRL6409 assessed as reduction in fungal viability incubated for 48 hrs by microplate reader analysis; format: functional
Kluyveromyces marxianus = test: Antifungal activity against Candida kefyr 12 assessed as inhibition in fungal growth incubated for 48 hrs by microplate reader analysis; format: functional
[Candida] auris [2] = Antifungal activity against multidrug-resistant Candida auris 381 assessed as inhibition in fungal growth incubated for 48 hrs by microplate reader analysis; format: functional; details: Candidozyma auris
[Candida] auris [3] = Antifungal activity against multidrug-resistant Candida auris 388 assessed as inhibition in fungal growth incubated for 48 hrs by microplate reader analysis; format: functional; details: Candidozyma auris
[Candida] auris [4] = Antifungal activity against multidrug-resistant Candida auris 386 assessed as inhibition in fungal growth incubated for 48 hrs by microplate reader analysis; format: functional; details: Candidozyma auris
[Candida] auris [5] = Antifungal activity against multidrug-resistant Candida auris 387 assessed as inhibition in fungal growth incubated for 48 hrs by microplate reader analysis; format: functional; details: Candidozyma auris
Cryptococcus neoformans [6] = test: Antifungal activity against Cryptococcus neoformans H99 assessed as inhibition in fungal growth incubated for 48 hrs in presence of 5% serum by microplate reader analysis; format: functional
Saccharomyces cerevisiae = test: Antifungal activity against multidrug-resistant Saccharomyces cerevisiae 399 assessed as inhibition in fungal growth incubated for 48 hrs by microplate reader analysis; format: functional
Cryptococcus neoformans [7] = test: Antifungal activity against Cryptococcus neoformans H99 assessed as reduction in fungal viability incubated for 48 hrs by microplate reader analysis; format: functional
Candida albicans [8] = test: Antifungal activity against Candida albicans SC5314 assessed as reduction in fungal growth incubated for 48 hrs by microplate reader analysis; format: functional
Paecilomyces lilacinus = test: Antifungal activity against Paecilomyces lilacinus 165E10 assessed as reduction in fungal viability incubated for 48 hrs by microplate reader analysis; format: functional, Purpureocillium lilacinum
Candida parapsilosis [9] = test: Antifungal activity against Candida parapsilosis ATCC 22019 (Y-12969) assessed as reduction in fungal growth incubated for 48 hrs by microplate reader analysis; format: functional; details: Lodderomyces parapsilosis
Aspergillus terreus = test: Antifungal activity against Aspergillus terreus 191A6 assessed as reduction in fungal viability incubated for 48 hrs by microplate reader analysis; format: functional
Candida albicans [10] = test: Antifungal activity against Candida albicans SC5314 assessed as reduction in fungal viability incubated for 48 hrs by microplate reader analysis; format: functional
Candida albicans [11] = test: Antifungal activity against Candida albicans ATCC 10231 assessed as reduction in fungal viability incubated for 48 hrs by microplate reader analysis; format: functional
Candida albicans [12] = test: Antifungal activity against Candida albicans 30 assessed as inhibition in fungal growth incubated for 48 hrs by microplate reader analysis; format: functional
Rhizopus arrhizus [13] = test: Antifungal activity against Rhizopus oryzae FGSC 9543 assessed as reduction in fungal viability incubated for 48 hrs by microplate reader analysis; format: functional
Candida albicans [14] = test: Antifungal activity against Candida albicans 21 assessed as inhibition in fungal growth incubated for 48 hrs by microplate reader analysis; format: functional
Candida albicans [15] = test: Antifungal activity against Candida albicans 14 assessed as inhibition in fungal growth incubated for 48 hrs by microplate reader analysis; format: functional
[Candida] auris [16] = Antifungal activity against multidrug-resistant Candida auris 382 assessed as inhibition in fungal growth incubated for 48 hrs by microplate reader analysis; format: functional; details: Candidozyma auris
Aspergillus fumigatus [17] = test: Antifungal activity against Aspergillus fumigatus NRRL6113 assessed as reduction in fungal viability incubated for 48 hrs by microplate reader analysis; format: functional
Rhizopus arrhizus [18] = test: Antifungal activity against Rhizopus oryzae FGSC 9543 assessed as reduction in fungal growth incubated for 48 hrs by microplate reader analysis; format: functional
Cryptococcus neoformans [19] = test: Antifungal activity against Cryptococcus neoformans H99 assessed as inhibition in fungal growth incubated for 48 hrs in presence of 10% serum by microplate reader analysis; format: functional
Mucor circinelloides [20] = test: Antifungal activity against Mucor circinelloides 235C7 assessed as reduction in fungal viability incubated for 48 hrs by microplate reader analysis; format: functional
Candida parapsilosis [21] = test: Antifungal activity against Candida parapsilosis 23 assessed as inhibition in fungal growth incubated for 48 hrs by microplate reader analysis; format: functional; details: Lodderomyces parapsilosis
Hamigera insecticola = test: Antifungal activity against Hamigera insecticola NRRL35442 assessed as reduction in fungal viability incubated for 48 hrs by microplate reader analysis; format: functional
Aspergillus fumigatus [22] = test: Antifungal activity against Aspergillus fumigatus MYA 3627 assessed as reduction in fungal growth incubated for 48 hrs by microplate reader analysis; format: functional
Aspergillus fumigatus [23] = test: Antifungal activity against Aspergillus fumigatus ATCC MYA-3627 assessed as inhibition in fungal growth incubated for 48 hrs in presence of 5% serum by microplate reader analysis; format: functional
Aspergillus fumigatus [24] = test: Antifungal activity against Aspergillus fumigatus MYA 3627 assessed as reduction in fungal viability incubated for 48 hrs by microplate reader analysis; format: functional
Curvularia lunata [25] = test: Antifungal activity against Curvularia lunata NRRL6409 assessed as reduction in fungal growth incubated for 48 hrs by microplate reader analysis; format: functional
Candida duobushaemulonii [26] = test: Antifungal activity against multidrug-resistant Candida duobushaemulonii 392 assessed as inhibition in fungal growth incubated for 48 hrs by microplate reader analysis; format: functional; details: Candidozyma duobushaemuli
Candida albicans [27] = test: Antifungal activity against Candida albicans SC5314 assessed as inhibition in fungal growth incubated for 48 hrs in presence of 0% serum by microplate reader analysis; format: functional
Aspergillus fumigatus [28] = test: Antifungal activity against Aspergillus fumigatus NRRL6113 assessed as reduction in fungal growth incubated for 48 hrs by microplate reader analysis; format: functional
Aspergillus niger = test: Antifungal activity against Aspergillus niger FGSC A732 assessed as reduction in fungal viability incubated for 48 hrs by microplate reader analysis; format: functional
Candida tropicalis = test: Antifungal activity against Candida tropicalis ATCC750 (Y-12699) assessed as reduction in fungal growth incubated for 48 hrs by microplate reader analysis; format: functional
Aspergillus fumigatus [29] = test: Antifungal activity against Aspergillus fumigatus NRRL5109 assessed as reduction in fungal growth incubated for 48 hrs by microplate reader analysis; format: functional
Aspergillus fumigatus [30] = test: Antifungal activity against Aspergillus fumigatus NRRL5109 assessed as reduction in fungal viability incubated for 48 hrs by microplate reader analysis; format: functional
Candida parapsilosis [31] = test: Antifungal activity against Candida parapsilosis 28 assessed as inhibition in fungal growth incubated for 48 hrs by microplate reader analysis; format: functional; details: Lodderomyces parapsilosis
[Candida] auris [32] = Antifungal activity against multidrug-resistant Candida auris 383 assessed as inhibition in fungal growth incubated for 48 hrs by microplate reader analysis; format: functional; details: Candidozyma auris
Mucor circinelloides [33] = test: Antifungal activity against Mucor circinelloides 235C7 assessed as reduction in fungal growth incubated for 48 hrs by microplate reader analysis; format: functional
Candida albicans [34] = test: Antifungal activity against Candida albicans SC5314 assessed as inhibition in fungal growth incubated for 48 hrs in presence of 5% serum by microplate reader analysis; format: functional
Candida duobushaemulonii [35] = test: Antifungal activity against multidrug-resistant Candida duobushaemulonii 394 assessed as inhibition in fungal growth incubated for 48 hrs by microplate reader analysis; format: functional; details: Candidozyma duobushaemuli
Candida albicans [36] = test: Antifungal activity against Candida albicans 24 assessed as inhibition in fungal growth incubated for 48 hrs by microplate reader analysis; format: functional

C[C@@H]1[C@H](O)[C@@H](C)/C=C/C=C/C=C/C=C/C=C/C=C/C=C/[C@H](O[C@@H]2O[C@H](C)[C@@H](O)[C@H](N)[C@@H]2O)C[C@@H]2O[C@](O)(C[C@@H](O)C[C@@H](O)[C@H](O)CC[C@@H](O)C[C@@H](O)CC(=O)O[C@H]1C)C[C@H](O)[C@H]2C(=O)O [AMPHOTERICIN B]
5 µM: MFC (Candida parapsilosis [9]) | MIC80 (Candida duobushaemulonii [26]) | MFC (Aspergillus fumigatus [29]) | MFC<=99.9 (Aspergillus fumigatus [30]) | MIC80 (Candida duobushaemulonii [35])
>10 µM: MFC<=99.9 (Paecilomyces lilacinus)
2.5 µM: MFC<=99.9 (Curvularia lunata [1]) | MIC80 ([Candida] auris [3]) | MIC80 ([Candida] auris [4]) | MIC80 ([Candida] auris [5]) | MIC80 (Saccharomyces cerevisiae) | MFC<=99.9 (Cryptococcus neoformans [7]) | MFC (Candida albicans [8]) | MFC<=99.9 (Candida albicans [10]) | MFC<=99.9 (Candida albicans [11]) | MIC80 (Candida albicans [12]) | MFC (Aspergillus fumigatus [22]) | MIC80 (Aspergillus fumigatus [22]) | MFC<=99.9 (Aspergillus fumigatus [24]) | MFC (Curvularia lunata [25]) | MIC80 (Aspergillus fumigatus [28]) | MFC<=99.9 (Aspergillus niger) | MFC (Candida tropicalis) | MIC80 (Aspergillus fumigatus [29]) | MIC80 ([Candida] auris [32])
< 0.1 µM: MIC80 (Aspergillus fumigatus [23])
0.3 µM: MIC80 (Kluyveromyces marxianus) | MFC<=99.9 (Rhizopus arrhizus [13]) | MFC (Rhizopus arrhizus [18]) | MIC80 (Rhizopus arrhizus [18]) | MIC80 (Curvularia lunata [25])
10 µM: MFC<=99.9 (Aspergillus terreus) | MFC<=99.9 (Aspergillus fumigatus [17]) | MFC<=99.9 (Hamigera insecticola) | MFC (Aspergillus fumigatus [28])
0.6 µM: MIC80 (Candida albicans [8]) | MIC80 (Candida albicans [14]) | MIC80 (Candida albicans [27])
1.3 µM: MIC80 ([Candida] auris [2]) | MIC80 (Candida parapsilosis [9]) | MIC80 (Candida albicans [15]) | MIC80 ([Candida] auris [16]) | MFC<=99.9 (Mucor circinelloides [20]) | MIC80 (Candida parapsilosis [21]) | MIC80 (Candida tropicalis) | MIC80 (Candida parapsilosis [31]) | MFC (Mucor circinelloides [33]) | MIC80 (Mucor circinelloides [33]) | MIC80 (Candida albicans [36])
< 0.2 µM: MIC80 (Cryptococcus neoformans [6]) | MIC80 (Cryptococcus neoformans [19]) | MIC80 (Candida albicans [34])
